A word on the IC50: it is the concentration needed to halve the response being measured.

In this assay the target is T1, USP1/UAF1 (Homo sapiens, UniProt O94782).
T1 construct: purchased R&D Systems
T1 sequence (O94782 whole entry): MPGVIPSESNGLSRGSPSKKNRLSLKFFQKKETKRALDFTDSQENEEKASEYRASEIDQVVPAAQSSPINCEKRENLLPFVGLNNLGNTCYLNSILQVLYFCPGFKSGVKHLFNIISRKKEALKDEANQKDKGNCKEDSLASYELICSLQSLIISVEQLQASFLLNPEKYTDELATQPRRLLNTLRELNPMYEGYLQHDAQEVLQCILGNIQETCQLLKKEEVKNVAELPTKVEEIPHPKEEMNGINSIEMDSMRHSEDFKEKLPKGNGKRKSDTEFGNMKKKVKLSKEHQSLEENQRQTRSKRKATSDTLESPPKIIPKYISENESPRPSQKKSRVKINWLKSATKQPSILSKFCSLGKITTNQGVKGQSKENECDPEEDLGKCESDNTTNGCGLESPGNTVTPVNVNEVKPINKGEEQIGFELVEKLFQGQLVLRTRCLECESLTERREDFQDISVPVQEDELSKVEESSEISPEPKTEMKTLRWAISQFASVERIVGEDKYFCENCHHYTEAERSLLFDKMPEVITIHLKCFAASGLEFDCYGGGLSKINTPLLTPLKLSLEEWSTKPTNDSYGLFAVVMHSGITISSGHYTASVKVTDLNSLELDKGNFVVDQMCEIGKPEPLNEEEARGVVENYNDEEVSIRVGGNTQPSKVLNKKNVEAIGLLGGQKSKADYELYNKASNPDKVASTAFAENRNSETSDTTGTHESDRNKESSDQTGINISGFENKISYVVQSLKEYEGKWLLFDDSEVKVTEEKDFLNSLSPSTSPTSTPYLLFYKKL
T1 sequence (Q8TAF3 whole entry partner): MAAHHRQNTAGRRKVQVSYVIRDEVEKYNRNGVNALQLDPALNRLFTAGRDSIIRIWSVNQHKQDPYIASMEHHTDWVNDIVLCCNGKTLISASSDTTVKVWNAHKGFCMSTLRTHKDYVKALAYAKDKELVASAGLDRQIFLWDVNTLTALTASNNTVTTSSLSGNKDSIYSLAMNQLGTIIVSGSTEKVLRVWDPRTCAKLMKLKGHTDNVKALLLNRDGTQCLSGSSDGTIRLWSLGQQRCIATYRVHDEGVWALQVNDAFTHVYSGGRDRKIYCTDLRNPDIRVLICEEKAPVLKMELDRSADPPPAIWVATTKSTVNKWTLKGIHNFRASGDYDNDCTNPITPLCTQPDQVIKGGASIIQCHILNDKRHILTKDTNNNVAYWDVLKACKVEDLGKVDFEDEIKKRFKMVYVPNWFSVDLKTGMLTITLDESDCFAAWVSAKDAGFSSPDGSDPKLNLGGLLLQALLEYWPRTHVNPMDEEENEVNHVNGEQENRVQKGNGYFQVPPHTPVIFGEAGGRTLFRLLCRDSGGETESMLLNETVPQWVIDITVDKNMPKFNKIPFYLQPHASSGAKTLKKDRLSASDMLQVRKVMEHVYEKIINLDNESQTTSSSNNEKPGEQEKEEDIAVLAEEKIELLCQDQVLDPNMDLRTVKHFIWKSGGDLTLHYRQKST
The assay is described as follows: Deubiquitination assay for USP1/UAF1 (ubiquitin-rhodamine 110 substrate). It is filed as biochemical. The settings on record: 0.5 nM USP1/UAF1, 150 nM ubiquitin-rhodamine, 50% inhibition compared to DMSO control. On the procedure:
Deubiquitination assay for USP1/UAF1: compounds described here were tested for their ability to inhibit USP1 deubiquitinase activity in this assay using ubiquitin-rhodamine 110 as the substrate. The assay was conducted in the assay buffer (50 mM Tris-HCl, pH 7.8, 0.5 mM EDTA, 0.1 mg/ml Bovine Serum Albumin, 1 mM DTT, 0.01% Tween-20) in 384 well plates. 0.5 nM USP1/UAF1 (R&D Systems) was incubated with compounds in dose response format for 10 minutes at room temperature. Then the reaction was initiated by addition of 150 nM ubiquitin-rhodamine (R&D Systems). The fluorescence intensity was read after 45 minutes at Ex488/Em535 by CLARIOstar (BMG Labtech). IC50 response curves were plotted.
With `CC(C)n1cc(C(F)(F)F)nc1-c1ccc2c(c1)NCCOc1ncnc(C3CC3)c1-c1ncc3ccc(=O)n(c3n1)C2` [Example 24, 1^6-cyclopropyl-4^4-(1-isopropyl-4-(trifluoromethyl)-1H-imidazol-2-yl)-2^7,2^8-dihydro-8-oxa-5-aza-2(2,8)-pyrido[2,3-d]pyrimidina-1(5,4)-pyrimidina-4(1,2)-benzenacyclooctaphan-2^7-one], the IC50 was at most 100 nM.

`CC(C)n1cc(C(F)(F)F)nc1-c1ccc2c(c1)CCCOc1ncnc(C3CC3)c1-c1ncc3ccc(=O)n(c3n1)C2` [Example 25, 1^6-cyclopropyl-4^4-(1-isopropyl-4-(trifluoromethyl)-1H-imidazol-2-yl)-2^7,2^8-dihydro-8-oxa-2(2,8)-pyrido[2,3-d]pyrimidina-1(5,4)-pyrimidina-4(1,2)-benzenacyclooctaphan-2^7-one] showed an IC50 of at most 100 nM.

For `CC(C)n1cc(C(F)(F)F)nc1-c1ccc2c(c1)NCCCOc1cccc(C3CC3)c1-c1ncc3cnn(c3n1)C2` [Example 26, 1^6-cyclopropyl-4^4-(1-isopropyl-4-(trifluoromethyl)-1H-imidazol-2-yl)-2^1H-9-oxa-5-aza-2(6,1)-pyrazolo[3,4-d]pyrimidina-1,4(1,2)-dibenzenacyclononaphane], the IC50 is at most 100 nM.

Compound `CC(C)n1cc(C(F)(F)F)nc1-c1ccc2c(c1)SCCOc1ncnc(C3CC3)c1-c1ncc3cnn(c3n1)C2` [Example 27, 1^6-cyclopropyl-4^4-(1-isopropyl-4-(trifluoromethyl)-1H-imidazol-2-yl)-2^1H-8-oxa-5-thia-2(6,1)-pyrazolo[3,4-d]pyrimidina-1(5,4)-pyrimidina-4(1,2)-benzenacyclooctaphane] showed an IC50 of at most 100 nM.

Take `CC(C)n1cc(C(F)(F)F)nc1-c1ccc2c(c1)COCCOc1ncnc(C3CC3)c1-c1ncc3cnn(c3n1)C2` [Example 28, 1^6cyclopropyl-4^4-(1-isopropyl-4-(trifluoromethyl)-1H-imidazol-2-yl)-2^1H-6,9-dioxa-2(6,1)-pyrazolo[3,4-d]pyrimidina-1(5,4)-pyrimidina-4(1,2)-benzenacyclononaphane]: the IC50 is at most 100 nM.

In turn, `CC(C)n1cc(C(F)(F)F)nc1-c1ccc2cc1OCCOc1ncnc(C3CC3)c1-c1ncc3cnn(c3n1)C2` [Example 29, 1^6-cyclopropyl-44-(1-isopropyl-4-(trifluoromethyl)-1H-imidazol-2-yl)-2^1H-5,8-dioxa-2(6,1)-pyrazolo[3,4-d]pyrimidina-1(5,4)-pyrimidina-4(1,3)-benzenacyclooctaphane] returned an IC50 of at most 100 nM.

In the case of `CC(C)n1cc(C(F)(F)F)nc1-c1ccc2c(c1)/C=C/COc1ncnc(C3CC3)c1-c1ncc3cnn(c3n1)C2` [Example 30, (E)-1^6-cyclopropyl-4^4-(1-isopropyl-4-(trifluoromethyl)-1H-imidazol-2-yl)-2^1H-8-oxa-2(6,1)-pyrazolo[3,4-d]pyrimidina-1(5,4)-pyrimidina-4(1,2)-benzenacyclooctaphan-5-ene], the IC50 was at most 100 nM.

`CC(C)n1cc(C(F)(F)F)nc1-c1ccc2c(c1)OCCOc1ncnc(C3CC3)c1-c1ncc3ccc(n3n1)C2` [Example 31, (Z)-1^6-cyclopropyl-4^4-(1-isopropyl-4-(trifluoromethyl)-1H-imidazol-2-yl)-5,8-dioxa-2(2,7)-pyrrolo[2,1-f][1,2,4]triazina-1(5,4)-pyrimidina-4(1,2)-benzenacyclooctaphane] returned an IC50 of at most 100 nM.

The compound `FC(F)(F)c1cn(C2CC2)c(-c2ccc3c(c2)CCCOc2ncnc(C4CC4)c2-c2ncc4ccc(n4n2)C3)n1` [Example 32, (Z)-1^6-cyclopropyl-4^4-(1-cyclopropyl-4-(trifluoromethyl)-1H-imidazol-2-yl)-8-oxa-2(2,7)-pyrrolo[2,1-f][1,2,4]triazina-1(5,4)-pyrimidina-4(1,2)-benzenacyclooctaphane] came in with an IC50 of at most 100 nM.

Take `CC(C)n1cc(C(F)(F)F)nc1-c1ccc2c(c1)NCCCOc1ncnc(C3CC3)c1-c1ncc3ccc(n3n1)C2` [Example 33, (Z)-1^6-cyclopropyl-4^4-(1-isopropyl-4-(trifluoromethyl)-1H-imidazol-2-yl)-9-oxa-5-aza-2(2,7)-pyrrolo[2,1-f][1,2,4]triazina-1(5,4)-pyrimidina-4(1,2)-benzenacyclononaphane]: the IC50 was at most 100 nM.

`Fc1cc2n3nc(ncc13)-c1c(ncnc1C1CC1)OCCOc1cc(-c3nc(C(F)(F)F)cn3C3CC3)ccc1C2` [Example 34, (Z)-1^6-cyclopropyl-4^4-(1-cyclopropyl-4-(trifluoromethyl)-1H-imidazol-2-yl)-2^5-fluoro-5,8-dioxa-2(2,7)-pyrrolo[2,1-f][1,2,4]triazina-1(5,4)-pyrimidina-4(1,2)-benzenacyclooctaphane]: the IC50 is at most 100 nM.

The compound `CC(C)n1cc(C(F)(F)F)nc1-c1ccc2c(c1)NCCCOc1ncnc(C3CC3)c1-c1ncc3ccn(c3n1)C2` [Example 35, 1^6-cyclopropyl-4^4-(1-isopropyl-4-(trifluoromethyl)-1H-imidazol-2-yl)-2^7H-9-oxa-5-aza-2(2,7)-pyrrolo[2,3-d]pyrimidina-1(5,4)-pyrimidina-4(1,2)-benzenacyclononaphane] displayed an IC50 of at most 100 nM.

In turn, `FC(F)(F)c1cc(C2CC2)n(-c2ccc3c(c2)NCCCOc2c(ncnc2C2CC2)-c2ncc4cnn(c4n2)C3)n1` [Example 36, 1-cyclopropyl-4-(5-cyclopropyl-3-(trifluoromethyl)-1H-pyrazol-1-yl)-21H-9-oxa-5-aza-2(6,1)-pyrazolo[3,4-d]pyrimidina-1(5,4)-pyrimidina-4(1,2)-benzenacyclononaphane] returned an IC50 of at most 100 nM.

On to `CC(C)c1cc(C(F)(F)F)nn1-c1ccc2c(c1)NCCCOc1ncnc(C3CC3)c1-c1ncc3cnn(c3n1)C2` [Example 37, 16-cyclopropyl-44-(5-isopropyl-3-(trifluoromethyl)-1H-pyrazol-1-yl)-21H-9-oxa-5-aza-2(6,1)-pyrazolo[3,4-d]pyrimidina-1(5,4)-pyrimidina-4(1,2)-benzenacyclononaphane], for which the IC50 is at most 100 nM.

Compound `CC(C)n1cc(C(F)(F)F)nc1-c1ccc2cc1OCCCOc1ncnc(C3CC3)c1-c1ncc3cnn(c3n1)C2` [Example 38, 1^6-cyclopropyl-4^4-(1-isopropyl-4-(trifluoromethyl)-1H-imidazol-2-yl)-2^1H-5,9-dioxa-2(6,1)-pyrazolo[3,4-d]pyrimidina-1(5,4)-pyrimidina-4(1,3)-benzenacyclononaphane] returned an IC50 of at most 100 nM.

`FC(F)(F)c1cn(C2CC2)c(-c2ccc3c(c2)/C=C/COc2ncnc(C4CC4)c2-c2ncc4ccc(n4n2)C3)n1` [Example 39, (2^1Z,5E)-1^6-cyclopropyl-4^4-(1-cyclopropyl-4-(trifluoromethyl)-1H-imidazol-2-yl)-8-oxa-2(2,7)-pyrrolo[2,1-f][1,2,4]triazina-1(5,4)-pyrimidina-4(1,2)-benzenacyclooctaphan-5-ene] registered an IC50 of 100 to 1000 nM.

Regarding `CC(C)n1cc(C(F)(F)F)nc1-c1ccc2cc1NCCOc1ncnc(C3CC3)c1-c1ncc3cnn(c3n1)C2` [Example 40, 1^6-cyclopropyl-4^4-(1-isopropyl-4-(trifluoromethyl)-1H-imidazol-2-yl)-2H-8-oxa-5-aza-2(6,1)-pyrazolo[3,4-d]pyrimidina-1(5,4)-pyrimidina-4(1,3)-benzenacyclooctaphane], the IC50 is at most 100 nM.
